Assay results as given in ChEMBL document CHEMBL1121575, “Synthesis and biological activity of some 15-oxaestranes” (J Med Chem, 1980).

Legend:
[1] = target: T1, Estrogen receptor (Rattus norvegicus) (UniProt P06211+Q62986); assay: Oral estrogenic activity in uterotropic assay in rats at 40-1000 ng dose; assay type: functional
[2] = target: T1, Estrogen receptor (Rattus norvegicus)
Description: Oral estrogenic activity in uterotropic assay in rats at 400-4000ng dose

[3] = target: T1, Estrogen receptor (Rattus norvegicus); assay: Oral estrogenic activity in uterotropic assay in rats at 40-400 ng dose; assay type: functional
[4] = target: T1, Estrogen receptor (Rattus norvegicus); assay: Oral estrogenic activity in uterotropic assay in rats at 20-200 ng dose; assay type: functional
[5] = target: T1, Estrogen receptor (Rattus norvegicus); remark: listed apart in the source
Description: Oral estrogenic activity in uterotropic assay in rats at 100-1000 ng dose

A Weight [1] of -52.2 mg was found for `CC12CCC3c4ccc(OC5CCCC5)cc4CCC3C1OCC2=O` (stereo not given) in this work.

A Weight [2] of -120 mg was found for `C[C@]12CC[C@@H]3c4ccc(O)cc4CC[C@H]3[C@@H]1CCC2=O` in this work.

A Weight [3] of -32.1 mg was found for `CC12CCC3c4ccc(O)cc4CCC3C1OCC2=O` (stereo not given) in this work.

A Weight [4] of -7.8 mg was found for `CC12CCC3c4ccc(O)cc4CCC3C1OC[C@@H]2O` (stereo not given in full) in this work.

A Weight [5] of -23.9 mg was found for `C#C[C@]1(O)COC2C3CCc4cc(OC)ccc4C3CCC21C` (stereo not given in full) in this work.
